Test systems include COLO 205 colon; OVCAR-8 ovarian; SK-OV-3 ovarian; SN12C renal; U251 CNS; UACC-257 melanoma.
Assay in all cases: NCI tumour cell line growth inhibition, 48 h

Values joined by “and” are separate entries in the source; they are usually repeats but may differ in a detail not shown here. Identical values can stand only once.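 Values below derive from 48-hour exposures of cells grown in 96-well plates, with endpoints linearly interpolated between the two concentrations bracketing the appropriate inhibition level. Abbreviation: GI50, concentration required for 50% inhibition of growth. TGI: concentration producing complete growth inhibition.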 A value given as a limit tells only on which side of the number the result lay.

As to `COc1ccc(C(=O)C(C(=O)C(=O)NC2C3CC4CC(C3)CC2C4)c2ccc(OC)cc2)cc1` (configuration not stated), the TGI in the assay on COLO 205 colon, in the assay on OVCAR-8 ovarian, with SK-OV-3 ovarian, with SN12C renal, in the assay on U251 CNS and in the assay on UACC-257 melanoma was over 100 µM in each case.
For `CCC1CC(C)=CCN1S(=O)(=O)c1ccc(C)cc1` (configuration not stated), the TGI is 38.4 µM with COLO 205 colon; over 100 µM in the assay on OVCAR-8 ovarian; over 100 µM with SK-OV-3 ovarian; 24.3 µM in the assay on SN12C renal; over 100 µM with UACC-257 melanoma.
With `CN(C)C1=NC2=S(SC(Nc3ccccc3)=N2)S1` (configuration not stated), the TGI was over 100 µM in the assay with OVCAR-8 ovarian; 90.4 µM in the assay on SK-OV-3 ovarian; over 100 µM in the assay with SN12C renal; over 100 µM with U251 CNS; 70.8 µM in the assay with UACC-257 melanoma.
In the case of `NC(=O)Nc1c([N+](=O)[O-])cc(C(F)(F)F)cc1[N+](=O)[O-]`, the TGI was 98.1 µM in the assay with COLO 205 colon; over 100 µM in the assay on OVCAR-8 ovarian; over 100 µM in the assay with SN12C renal; over 100 µM in the assay on U251 CNS; over 100 µM in the assay on UACC-257 melanoma.
Regarding `O=C(c1nc2ccc(Cl)cc2[nH]c1=O)C(O)c1ccc2c(c1)OCO2` (configuration not stated), the TGI in the assay with COLO 205 colon, in the assay on OVCAR-8 ovarian, in the assay on SK-OV-3 ovarian, in the assay with U251 CNS and in the assay on UACC-257 melanoma was over 100 µM throughout.
Turning to `CCOC(=O)C(=O)Nc1c(C)cccc1C(C)C`, the TGI with COLO 205 colon, in the assay on OVCAR-8 ovarian, in the assay on SK-OV-3 ovarian, in the assay on SN12C renal, with U251 CNS and in the assay with UACC-257 melanoma was over 100 µM throughout.
`COc1ccc(C(=O)CC(=O)C(=O)Nc2ccc(C)c(C)c2)cc1`: the TGI in the assay on COLO 205 colon is over 82.4 µM; with OVCAR-8 ovarian it was over 100 µM; in the assay with SK-OV-3 ovarian, over 100 µM; in the assay on SN12C renal, over 100 µM; in the assay on U251 CNS, over 100 µM; in the assay on UACC-257 melanoma, over 100 µM.
For the compound `CC1=NC(C(C)C)C(=O)O1` (configuration not stated), the TGI in the assay on COLO 205 colon, with OVCAR-8 ovarian, with SK-OV-3 ovarian, with SN12C renal, with U251 CNS and in the assay with UACC-257 melanoma was over 100 µM throughout.
On to `O=C1OC(c2ccccc2)=N/C1=C\c1cc(Cl)ccc1Cl`, for which the TGI in the assay with COLO 205 colon, in the assay on SN12C renal, in the assay with U251 CNS and in the assay on UACC-257 melanoma was over 100 µM each time.
As for `CCOC(=O)NC(=O)c1cn(CCCOC(=O)NCCCCCCNC(=O)OCCCn2cc(C(=O)NC(=O)OCC)c(=O)[nH]c2=O)c(=O)[nH]c1=O`, the TGI in the assay on COLO 205 colon is 41 µM; in the assay with OVCAR-8 ovarian it was over 100 µM; in the assay on SK-OV-3 ovarian, over 100 µM; with SN12C renal, over 100 µM; with U251 CNS, 33.6 µM; in the assay on UACC-257 melanoma, 37 µM.
With `CCCc1nc(NC#N)nc(C(=O)NC23CC4CC(CC(C4)C2)C3)c1C`, the TGI in the assay with COLO 205 colon, in the assay with OVCAR-8 ovarian, with SK-OV-3 ovarian, in the assay with SN12C renal, with U251 CNS and with UACC-257 melanoma was over 100 µM each time.
As to `O=NN/C(=C1\Nc2ccc([N+](=O)[O-])cc2NC1=O)C(O)c1ccc([N+](=O)[O-])cc1` (configuration not stated), the TGI with COLO 205 colon, with OVCAR-8 ovarian, in the assay with SK-OV-3 ovarian, in the assay on SN12C renal, in the assay on U251 CNS and in the assay on UACC-257 melanoma was over 100 µM in each case.
With `COC(=O)CS(=O)c1ccccc1` (configuration not stated), the TGI in the assay on COLO 205 colon is over 100 µM; in the assay with OVCAR-8 ovarian, 87.9 µM; in the assay on SK-OV-3 ovarian, over 100 µM; in the assay on SN12C renal, 40.4 µM; in the assay on U251 CNS, 98.6 µM; in the assay with UACC-257 melanoma, over 100 µM.
Turning to `CCCCCCCCCCCCCCCCCC(=O)OCC(C[As](=O)(O)O)OC(=O)CCCCCCCCCCCCCCCCC` (configuration not stated), the TGI was over 100 µM with OVCAR-8 ovarian; 50 µM with SK-OV-3 ovarian; over 100 µM in the assay on SN12C renal; over 100 µM in the assay on U251 CNS; over 100 µM in the assay with UACC-257 melanoma.
As for `O=C(O)c1cccc2cccc(C(=O)O)c12.[Hg]`, the GI50 with COLO 205 colon was 3.1 µM; in the assay with OVCAR-8 ovarian, 20.5 µM; in the assay with SK-OV-3 ovarian it was 19.6 µM; with SN12C renal, 14.6 µM; in the assay with U251 CNS, 12.2 µM; with UACC-257 melanoma, 16.7 µM. The TGI in the assay on COLO 205 colon came to 14.5 µM; in the assay on OVCAR-8 ovarian it was 46.2 µM; in the assay with SK-OV-3 ovarian it was 33.9 µM; in the assay with SN12C renal, 27.7 µM; in the assay with U251 CNS, 26.8 µM; in the assay on UACC-257 melanoma, 30.8 µM.
Regarding `Cc1ccc(C(=O)C#Cc2c[nH]c(=O)[nH]c2=O)cc1`, the TGI in the assay with COLO 205 colon was 44.3 µM; in the assay with OVCAR-8 ovarian it was 25.1 µM; with SK-OV-3 ovarian it was 73.6 µM; with SN12C renal, 16.2 µM; with U251 CNS it was 28.2 µM; in the assay with UACC-257 melanoma it was 34.6 µM.
As to `COC(=O)C(Cc1ccccc1)NC(=O)Cn1ccnc1[N+](=O)[O-]` (configuration not stated), the TGI in the assay with COLO 205 colon, in the assay on OVCAR-8 ovarian, in the assay on SK-OV-3 ovarian, with SN12C renal, with U251 CNS and with UACC-257 melanoma was over 100 µM in each case.
Turning to `CCC[CH2][Sn]1([CH2]CCC)[O]CC(CN2CCOCC2)[O]1` (configuration not stated), the GI50 was 3.58 µM in the assay on COLO 205 colon; 3.35 µM with OVCAR-8 ovarian; 12.3 µM with SK-OV-3 ovarian; 5.02 µM in the assay with SN12C renal; 3.05 µM with U251 CNS; 4.29 µM in the assay on UACC-257 melanoma. The TGI with COLO 205 colon stood at 9.59 µM; in the assay on OVCAR-8 ovarian it was 10.8 µM; in the assay on SK-OV-3 ovarian, 25.8 µM; with SN12C renal it was 16.7 µM; in the assay with U251 CNS it was 11 µM; in the assay on UACC-257 melanoma, 15.1 µM.
Regarding `COC(=O)C1=C(CS(=O)c2ccc([N+](=O)[O-])cc2[N+](=O)[O-])ON(C)C1c1ccccc1` (configuration not stated), the TGI is over 65 µM with COLO 205 colon; over 100 µM with OVCAR-8 ovarian; over 100 µM in the assay with SK-OV-3 ovarian; over 63.3 µM in the assay on SN12C renal; over 78.6 µM with U251 CNS; over 100 µM in the assay on UACC-257 melanoma.
Regarding `COc1ccccc1C(N)c1ccccc1` (configuration not stated), the TGI with COLO 205 colon, in the assay on OVCAR-8 ovarian, in the assay with SK-OV-3 ovarian, with SN12C renal, in the assay with U251 CNS and in the assay on UACC-257 melanoma was over 100 µM throughout.
Consider `COc1ccc(-c2cc(-c3cc(C)ccc3O)[nH]c(=O)n2)cc1`, for which the TGI with COLO 205 colon, in the assay with OVCAR-8 ovarian, with SK-OV-3 ovarian, with SN12C renal, in the assay on U251 CNS and with UACC-257 melanoma was over 100 µM each time.
Turning to `COc1ccc(NC(=O)CC(=O)N2N=C(N(CCC#N)c3cccc(C)c3)CC2c2ccccc2)cc1` (configuration not stated), the TGI with COLO 205 colon, in the assay with OVCAR-8 ovarian, with SK-OV-3 ovarian, in the assay on SN12C renal, in the assay on U251 CNS and with UACC-257 melanoma was over 100 µM in each case.
Regarding `CCOC(=O)N[C@@H]1C2CC(=O)C(O2)[C@@H]1OC` (some centres not stated), the TGI in the assay with COLO 205 colon, in the assay with OVCAR-8 ovarian, in the assay with SK-OV-3 ovarian, in the assay with SN12C renal, in the assay on U251 CNS and in the assay on UACC-257 melanoma was over 100 µM in each case.
With `COC1OC(COS(=O)(=O)c2ccc(C)cc2)C(O)C(OS(=O)(=O)c2ccc(C)cc2)C1OS(=O)(=O)c1ccc(C)cc1` (configuration not stated), the TGI in the assay on COLO 205 colon, in the assay on OVCAR-8 ovarian, with SK-OV-3 ovarian, in the assay on SN12C renal, with U251 CNS and in the assay with UACC-257 melanoma was over 100 µM throughout.
Take `NCCCNCCSSC/C=C\CSSCCNCCCN`: the TGI is over 100 µM in the assay on COLO 205 colon; over 100 µM in the assay with OVCAR-8 ovarian; over 100 µM in the assay on SK-OV-3 ovarian; over 100 µM in the assay on SN12C renal; over 100 µM in the assay with U251 CNS; > 100 µM and 76.8 µM in the assay with UACC-257 melanoma.
For `NC(=O)CCC(NC(=O)Cc1ccccc1)C(=O)O` (configuration not stated) (tested in a mixture with another compound), the TGI with COLO 205 colon, in the assay on OVCAR-8 ovarian, in the assay with SK-OV-3 ovarian, with SN12C renal and with U251 CNS was over 8130 µM throughout.
For `CC(=O)c1ccc(NC(=O)C(=O)C(C(=O)c2ccc(Cl)c(Cl)c2)C2OC(=O)c3ccccc32)cc1` (configuration not stated), the TGI in the assay on COLO 205 colon was 28.8 µM; with OVCAR-8 ovarian, 27.6 µM; with SK-OV-3 ovarian, over 100 µM; with SN12C renal it was 59.9 µM; in the assay with U251 CNS, 23 µM; in the assay on UACC-257 melanoma, over 100 µM.
`COc1cc(Nc2nc3cc(C(F)(F)F)ccc3nc2-c2ccccc2)cc(OC)c1OC`: the TGI in the assay with COLO 205 colon, with OVCAR-8 ovarian, in the assay with SK-OV-3 ovarian, in the assay on SN12C renal, with U251 CNS and in the assay on UACC-257 melanoma was over 100 µM throughout.
